According to patent US20250197409A1, “BIFUNCTIONAL COMPOUND AND PHARMACEUTICAL COMPOSITION COMPRISING THE BIFUNCTIONAL COMPOUND, AND METHOD FOR TREATING ANDROGEN RECEPTOR RELATED DISEASE BY USING THE SAME” (ANHORN MEDICINES CO., LTD., priority 2022, published 2025):
Where two headings read alike, the source gives them in different places.

Target: T1, androgen receptor (Homo sapiens, UniProt P10275, T878A)
T1 construct: host or cells: LNCaP.FGC
Assay: Androgen receptor degradation assay using Western blot analysis
Format: cell-based
How it was run: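 LNCaP.FGC cells (2×10^5/well) treated with 10-fold serial dilutions in RPMI from 100 nM stock; untreated cells as negative control. AR Western signal normalized to GAPDH, expressed as % remaining versus untreated (100%). DC50 derived from calibration curve of serial dilutions.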

[1] = 24 h, read-out: Androgen Receptor Remaining (%), LNCaP.FGC cells, 100 nM, 24 hr, normalized to GAPDH, untreated cells = 100%
[2] = read-out: AR DC50 (concentration needed for 50% AR degradation); LNCaP.FGC cells, serial 10x dilutions from 100 nM
[3] = LNCaP.FGC cells, 100 nM, 24 hr, normalized to GAPDH, untreated cells = 100%

T1 sequence (P10275 whole entry T878A): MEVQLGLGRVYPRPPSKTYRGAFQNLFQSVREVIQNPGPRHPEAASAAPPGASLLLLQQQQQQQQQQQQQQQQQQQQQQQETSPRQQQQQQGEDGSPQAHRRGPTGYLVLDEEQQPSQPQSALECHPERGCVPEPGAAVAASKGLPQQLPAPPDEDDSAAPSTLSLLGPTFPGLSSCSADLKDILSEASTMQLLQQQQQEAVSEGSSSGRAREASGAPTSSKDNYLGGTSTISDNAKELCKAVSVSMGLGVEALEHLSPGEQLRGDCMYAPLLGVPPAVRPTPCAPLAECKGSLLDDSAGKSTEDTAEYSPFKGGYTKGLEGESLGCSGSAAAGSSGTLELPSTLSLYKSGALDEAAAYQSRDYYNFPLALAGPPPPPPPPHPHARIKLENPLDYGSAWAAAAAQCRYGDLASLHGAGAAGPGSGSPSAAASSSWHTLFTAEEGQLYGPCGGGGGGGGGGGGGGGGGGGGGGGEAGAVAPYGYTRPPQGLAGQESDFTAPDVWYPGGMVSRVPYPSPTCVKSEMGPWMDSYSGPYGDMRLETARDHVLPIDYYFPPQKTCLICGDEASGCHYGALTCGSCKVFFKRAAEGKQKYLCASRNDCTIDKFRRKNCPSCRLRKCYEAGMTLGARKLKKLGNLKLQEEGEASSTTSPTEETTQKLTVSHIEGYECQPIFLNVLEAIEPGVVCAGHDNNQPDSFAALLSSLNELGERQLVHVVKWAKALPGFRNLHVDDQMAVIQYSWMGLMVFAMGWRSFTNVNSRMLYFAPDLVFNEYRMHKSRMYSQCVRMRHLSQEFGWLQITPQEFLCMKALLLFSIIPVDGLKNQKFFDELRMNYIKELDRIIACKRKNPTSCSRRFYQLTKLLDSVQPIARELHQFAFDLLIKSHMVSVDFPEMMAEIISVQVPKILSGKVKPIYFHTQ
T1 sequence (Q96SW2 whole entry partner): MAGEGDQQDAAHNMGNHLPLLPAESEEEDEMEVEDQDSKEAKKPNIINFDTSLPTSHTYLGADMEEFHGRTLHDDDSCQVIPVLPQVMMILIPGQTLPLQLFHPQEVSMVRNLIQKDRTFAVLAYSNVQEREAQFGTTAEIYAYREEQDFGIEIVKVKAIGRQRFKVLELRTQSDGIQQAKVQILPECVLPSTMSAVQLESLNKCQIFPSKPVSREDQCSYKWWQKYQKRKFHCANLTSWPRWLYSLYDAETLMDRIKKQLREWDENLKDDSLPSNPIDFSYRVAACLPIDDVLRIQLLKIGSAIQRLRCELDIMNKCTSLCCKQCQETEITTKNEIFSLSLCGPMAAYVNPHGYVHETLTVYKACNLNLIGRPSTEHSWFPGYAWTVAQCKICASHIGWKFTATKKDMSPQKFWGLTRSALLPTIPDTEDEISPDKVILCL

SMILES | remaining activity at 0.1 µM [1] | DC50 [2] | also measured
CCn1c2c(c3ccc(OCCCCN4CCN(c5ccc(C(=O)N[C@H]6CC[C@H](Oc7ccc(C#N)c(Cl)c7)CC6)nn5)CC4)cc31)C(=O)N(C1CCC(=O)NC1=O)C2=O (stereo partly shown) [Compound 89] | 7% | < 10 nM | 
CCn1c2c(c3ccc(OCCCCN4CCCN(c5ccc(C(=O)N[C@H]6CC[C@H](Oc7ccc(C#N)c(Cl)c7)CC6)nn5)CC4)cc31)C(=O)N(C1CCC(=O)NC1=O)C2=O (stereo partly shown) [Compound 90] | 28% | 25 to 100 nM | 
CCn1c2c(c3ccc(OCCCCN4CCN(c5ccc(C(=O)N[C@H]6CC[C@H](N(C)c7ccc(C#N)c(Cl)c7)CC6)nn5)CC4)cc31)C(=O)N(C1CCC(=O)NC1=O)C2=O (stereo partly shown) [Compound 91] | 0% | 10 to 25 nM | 
Cn1c2c(c3ccc(OCCCN4CCC5(CC4)CN(c4ccc(C(=O)N[C@H]6CC[C@H](Oc7ccc(C#N)c(Cl)c7)CC6)nn4)C5)cc31)C(=O)N(C1CCC(=O)NC1=O)C2=O (stereo partly shown) [Compound 92] |  |  | remaining activity at 0.1 µM (24 h, LNCaP.FGC cells, 100 nM, 24 hr, normalized to GAPDH, untreated cells = 100%; read-out: Androgen Receptor Remaining (%)): 6%; DC50 (LNCaP.FGC cells, serial 10x dilutions from 100 nM; read-out: AR DC50 (concentration needed for 50% AR degradation)): 25 to 100 nM
C=Nc1ccc(O[C@H]2CC[C@H](NC(=O)c3ccc(N4CC5(CCN(CCCOc6ccc7c8c(n(CC(F)F)c7c6)C(=O)N(C6CCC(=O)NC6=O)C8=O)CC5)C4)nn3)CC2)cc1Cl (stereo partly shown) [Compound 93] | 11% | 25 to 100 nM | 
CCn1c2c(c3ccc(OCCCN4CC5(CCN(c6ccc(C(=O)N[C@H]7CC[C@H](Oc8ccc(C#N)c(Cl)c8)CC7)nn6)CC5)C4)cc31)C(=O)N(C1CCC(=O)N(COCC[Si](C)(C)C)C1=O)C2=O (stereo partly shown) [Compound 94] | 89% |  | 
CCn1c2c(c3ccc(OCCCN4CC5(CCN(c6ccc(C(=O)N[C@H]7CC[C@H](Oc8ccc(C#N)c(Cl)c8)CC7)nn6)CC5)C4)cc31)C(=O)N(C1CCC(=O)N(CO)C1=O)C2=O (stereo partly shown) [Compound 95] | 1% | 10 to 25 nM | 
CCn1c2c(c3ccc(OCCCN4CC5(CCN(c6ccc(C(=O)N[C@H]7CC[C@H](Oc8ccc(C#N)c(Cl)c8)CC7)nn6)CC5)C4)cc31)C(=O)N(C1CCC(=O)NC1=O)C2=O (stereo partly shown) [Compound 96] |  | 10 to 25 nM | Androgen Receptor Remaining (%) [3]: 1%
CCn1c2c(c3ccc(OCCCN4CCN(c5ccc(C(=O)N[C@H]6CC[C@H](Oc7ccc(C#N)c(Cl)c7)CC6)nn5)[C@H](C)C4)cc31)C(=O)N(C1CCC(=O)NC1=O)C2=O (stereo partly shown) [Compound 98] | 26% | 25 to 100 nM | 
CCn1c2c(c3ccc(OCCN4CCN(c5ccc(C(=O)N[C@H]6CC[C@H](Oc7ccc(C#N)c(Cl)c7)CC6)nn5)[C@H](C)C4)cc31)C(=O)N(C1CCC(=O)NC1=O)C2=O (stereo partly shown) [Compound 99] | 39% | 25 to 100 nM | 
CCn1c2c(c3ccc(OCCCCN4C5CCC4CN(c4ccc(C(=O)N[C@H]6CC[C@H](Oc7ccc(C#N)c(Cl)c7)CC6)nn4)C5)cc31)C(=O)N(C1CCC(=O)NC1=O)C2=O (stereo partly shown) [Compound 100] | 44% | 25 to 100 nM | 
N#Cc1ccc(O[C@H]2CC[C@H](NC(=O)c3ccc(N4CC5(CCN(CCOc6ccc7c8c(n(CC(F)F)c7c6)C(=O)N(C6CCC(=O)NC6=O)C8=O)CC5)C4)nn3)CC2)cc1Cl (stereo partly shown) [Compound 103] | 52% |  | 
CN(c1ccc(C#N)c(Cl)c1)[C@H]1CC[C@H](NC(=O)c2ccc(N3CCN(CCOc4ccc5c6c(n(CC(F)F)c5c4)C(=O)N(C4CCC(=O)NC4=O)C6=O)CC3)nn2)CC1 (stereo partly shown) [Compound 104] | 42% | 25 to 100 nM | 
N#Cc1ccc(O[C@H]2CC[C@H](NC(=O)c3ccc(N4CCN(CCOc5ccc6c7c(n(CC(F)F)c6c5)C(=O)N(C5CCC(=O)NC5=O)C7=O)CC4)nn3)CC2)cc1Cl (stereo partly shown) [Compound 105] | 42% | 25 to 100 nM | 
CCn1c2c(c3ccc(OCCN4CCC5(CC4)CN(c4ccc(C(=O)N[C@H]6CC[C@H](N(C)c7ccc(C#N)c(Cl)c7)CC6)nn4)C5)cc31)C(=O)N(C1CCC(=O)NC1=O)C2=O (stereo partly shown) [Compound 106] | 119% |  | 
CCn1c2c(c3ccc(OCCCN4CCC5(CC4)CN(c4ccc(C(=O)N[C@H]6CC[C@H](N(C)c7ccc(C#N)c(Cl)c7)CC6)nn4)C5)cc31)C(=O)N(C1CCC(=O)NC1=O)C2=O (stereo partly shown) [Compound 107] | 15% |  | 
CN(c1ccc(C#N)c(Cl)c1)[C@H]1CC[C@H](NC(=O)c2ccc(N3CC4(CCN(CCOc5ccc6c7c(n(CC(F)F)c6c5)C(=O)N(C5CCC(=O)NC5=O)C7=O)CC4)C3)nn2)CC1 (stereo partly shown) [Compound 108] | 19% |  | 
CCn1c2c(c3ccc(OCCN4CCCN(c5ccc(C(=O)N[C@H]6CC[C@H](N(C)c7ccc(C#N)c(Cl)c7)CC6)nn5)CC4)cc31)C(=O)N(C1CCC(=O)NC1=O)C2=O (stereo partly shown) [Compound 110] | 34% | 10 to 25 nM | 
CCn1c2c(c3ccc(OCCCCN4CCCN(c5ccc(C(=O)N[C@H]6CC[C@H](N(C)c7ccc(C#N)c(Cl)c7)CC6)nn5)CC4)cc31)C(=O)N(C1CCC(=O)NC1=O)C2=O (stereo partly shown) [Compound 112] | 32% | 10 to 25 nM | 

SMILES | remaining activity at 0.1 µM [1] | DC50 [2] | also measured
CCn1c2c(c3ccc(OCCOCCN4CCN(c5ccc(C(=O)N[C@H]6CC[C@H](Oc7ccc(C#N)c(Cl)c7)CC6)nn5)CC4)cc31)C(=O)N(C1CCC(=O)NC1=O)C2=O (stereo partly shown) [Compound 113] | 26% | 10 to 25 nM | 
CCn1c2c(c3ccc(OCCOCCN4CCN(c5ccc(C(=O)N[C@H]6CC[C@H](N(C)c7ccc(C#N)c(Cl)c7)CC6)nn5)CC4)cc31)C(=O)N(C1CCC(=O)NC1=O)C2=O (stereo partly shown) [Compound 114] | 21% | 10 to 25 nM | 
CCn1c2c(c3ccc(OCCOCCN4CCN(c5ccc(C(=O)N[C@H]6CC[C@H](Oc7ccc(C#N)c(Cl)c7)CC6)nn5)CC4)cc31)C(=O)N(C1CCC(=O)NC1=O)C2=O (stereo partly shown) [Compound 115] |  | 25 to 100 nM | Androgen Receptor Remaining (%) [3]: 26%
CCn1c2c(c3ccc(OCCCCCN4CCN(c5ccc(C(=O)N[C@H]6CC[C@H](N(C)c7ccc(C#N)c(Cl)c7)CC6)nn5)CC4)cc31)C(=O)N(C1CCC(=O)NC1=O)C2=O (stereo partly shown) [Compound 116] | 37% | 25 to 100 nM | 
CCn1c2c(c3ccc(OCCCN4CCN(c5ccc(N6C(=S)N(c7ccc(C#N)c(C(F)(F)F)c7)C(=O)C6(C)C)cc5)CC4)cc31)C(=O)N(C1CCC(=O)NC1=O)C2=O (stereo not shown) [Compound 117] | 56% |  | 
CCn1c2c(c3ccc(OCCN4CCN(c5ccc(N6C(=S)N(c7ccc(C#N)c(C(F)(F)F)c7)C(=O)C6(C)C)cc5)CC4)cc31)C(=O)N(C1CCC(=O)NC1=O)C2=O (stereo not shown) [Compound 118] | 80% |  | 
CCn1c2c(c3ccc(OCC(=O)N4CCN(c5ccc(C(=O)N[C@H]6CC[C@H](Oc7ccc(C#N)c(Cl)c7)CC6)nn5)CC4)cc31)C(=O)N(C1CCC(=O)N(CO)C1=O)C2=O (stereo partly shown) [Compound 120] | 48% | 25 to 100 nM | 
CCn1c2c(c3ccc(OCC(=O)N4CCN(c5ccc(C(=O)N[C@H]6CC[C@H](Oc7ccc(C#N)c(Cl)c7)CC6)nn5)CC4)cc31)C(=O)N(C1CCC(=O)NC1=O)C2=O (stereo partly shown) [Compound 121] | 48% | 25 to 100 nM | 
CCn1c2c(c3ccc(OCC(=O)N4CCC5(CC4)CN(c4ccc(C(=O)N[C@H]6CC[C@H](Oc7ccc(C#N)c(Cl)c7)CC6)nn4)C5)cc31)C(=O)N(C1CCC(=O)N(CO)C1=O)C2=O (stereo partly shown) [Compound 122] | 33% | > 100 nM | 
CCn1c2c(c3ccc(OCC(=O)N4CCC5(CC4)CN(c4ccc(C(=O)N[C@H]6CC[C@H](Oc7ccc(C#N)c(Cl)c7)CC6)nn4)C5)cc31)C(=O)N(C1CCC(=O)NC1=O)C2=O (stereo partly shown) [Compound 123] | 33% | > 100 nM | 
CCn1c2c(c3ccc(OCC(=O)N4CCN(c5ccc(C(=O)N[C@H]6CC[C@H](N(C)c7ccc(C#N)c(Cl)c7)CC6)nn5)CC4)cc31)C(=O)N(C1CCC(=O)N(CO)C1=O)C2=O (stereo partly shown) [Compound 124] | 57% |  | 
CCn1c2c(c3ccc(OCC(=O)N4CCN(c5ccc(C(=O)N[C@H]6CC[C@H](N(C)c7ccc(C#N)c(Cl)c7)CC6)nn5)CC4)cc31)C(=O)N(C1CCC(=O)NC1=O)C2=O (stereo partly shown) [Compound 125] | 57% |  | 
CCn1c2c(c3ccc(OCC(=O)N4CC5(CCN(c6ccc(C(=O)N[C@H]7CC[C@H](Oc8ccc(C#N)c(Cl)c8)CC7)nn6)CC5)C4)cc31)C(=O)N(C1CCC(=O)N(CO)C1=O)C2=O (stereo partly shown) [Compound 126] | 58% |  | 
CCn1c2c(c3ccc(OCC(=O)N4CC5(CCN(c6ccc(C(=O)N[C@H]7CC[C@H](Oc8ccc(C#N)c(Cl)c8)CC7)nn6)CC5)C4)cc31)C(=O)N(C1CCC(=O)NC1=O)C2=O (stereo partly shown) [Compound 127] | 58% |  | 
CCn1c2c(c3ccc(OCC(=O)N4CCC5(CC4)CN(c4ccc(C(=O)N[C@H]6CC[C@H](N(C)c7ccc(C#N)c(Cl)c7)CC6)nn4)C5)cc31)C(=O)N(C1CCC(=O)N(CO)C1=O)C2=O (stereo partly shown) [Compound 128] | 63% |  | 
CCn1c2c(c3ccc(OCC(=O)N4CCC5(CC4)CN(c4ccc(C(=O)N[C@H]6CC[C@H](N(C)c7ccc(C#N)c(Cl)c7)CC6)nn4)C5)cc31)C(=O)N(C1CCC(=O)NC1=O)C2=O (stereo partly shown) [Compound 129] | 63% |  | 
CCn1c2c(c3ccc(OCC(=O)N4CCCN(c5ccc(C(=O)N[C@H]6CC[C@H](N(C)c7ccc(C#N)c(Cl)c7)CC6)nn5)CC4)cc31)C(=O)N(C1CCC(=O)N(CO)C1=O)C2=O (stereo partly shown) [Compound 130] | 51% |  | 
CCn1c2c(c3ccc(OCC(=O)N4CCCN(c5ccc(C(=O)N[C@H]6CC[C@H](N(C)c7ccc(C#N)c(Cl)c7)CC6)nn5)CC4)cc31)C(=O)N(C1CCC(=O)NC1=O)C2=O (stereo partly shown) [Compound 131] | 51% |  | 
CCn1c2c(c3ccc(OCCCN4CCC5(CCN(c6ccc(C(=O)N[C@H]7CC[C@H](Oc8ccc(C#N)c(Cl)c8)CC7)nn6)C5)C4)cc31)C(=O)N(C1CCC(=O)NC1=O)C2=O (stereo partly shown) [Compound 132] | 7% | 10 to 25 nM | 
